Results taken from publication PMC11831382, “Use of Aldehyde–Alkyne–Amine Couplings to Generate Medicinal Chemistry-Relevant Linkers” (ACS Medicinal Chemistry Letters, 2025).
Entries after “also recorded” stand apart in the source; their conditions may differ.

How the values were obtained:
[1] = molecular target: CRBN-DDB1 (cereblon DNA damage-binding protein 1 complex) (Homo sapiens, UniProt Q96SW2); test: Fluorescence polarization (FP) CRBN-binding assay, direct titration; conditions: 1 nM 4c titrated with CRBN-DDB1, triplicates, read-out: dissociation constant (Kd)
From the text: Medicinal chemistry scope was expanded by the synthesis of a few representative linkers, which were elaborated to modalities adorned with a cellular marker, an E3 ligase motif, and a free alcohol function. […] Initially, treatment with Pd(dba)2, dppb, and thiosalicylic acid removed the allyl protecting group to give 2m in 39% yield. The resulting secondary amine was coupled to a bodipy-containing carboxylic acid 3([25]) to afford the Boc-protected linker 4a (82% yield, Scheme 3). Simple Boc removal with acid exposed the secondary amine 4b intermediate, which was coupled to an acid comprising E3 ligand affording 4c. Such modalities have a free “handle” that could be added to a POI-binding ligand of choice, e.g., by substitution chemistry, esterification, or ether formation. […]
(§1) Following incubation, 100 μL per well Promega Nano -Glo HiBiT lytic detection reagent mix (Promega Nano -Glo HiBiT Lytic Detection System #N3050), prepared according to the manufacturer´s instructions in the kit, were added. […] Luminescence was measured using plate reader (BMG L abtech PHERA star).
(§2) Luminescence levels in the treatment wells were normalised to DMSO-treated samples and plotted as percentage of DMSO control in GraphPad Prism (10.2.3).Western blot 5x10^5 HEK293 CRISPR HIBIT BRD4 cells were seeded into 6-well plates 24 hours before treatment. […]
(§3) Fluorescence Polarization (FP). […]

BRD4 long and short = test: Western blot of BRD4 degradation; assay type: cell-based
Method: Figure 2 Representative Western blot of 7a degradation of BRD4 performed in HEK293 cell line after 18 h treatment. The experiment was done as n = 3 independent biological replicates.
The best analogue, 7a, was next shown, by Western blot, to degrade both BRD4 long and short in the 300–1000 nM range, reversed by the addition of either proteasome or neddylation inhibitors or by thalidomide.
Cell culture. HEK293 CRISPR HIBIT BRD4 cells were generated at CeTPD using CRISPR -CAS technology. Parental HEK293 and HEK293 CRISPR HIBIT BRD4 cell lines were cultured in DMEM media (Gibco), supplemented with 10% fetal bovine serum (FBS), and were kept at 37 °C, 5% CO2 in a humidiﬁed incubator.
BRD4 Degradation A ssays used a HiBiT Lytic assay. […]
as §1, §2, §3

Solubility = assay type: physicochemical; conditions: for solubility: 5% PBS buffer, saline; for solubility (qualitative remark): visual or general observation
From the text: (§4) Moreover, the solubility of both final compounds was low (5% PBS buffer, saline). These examples were merely chosen to showcase the synthetic potential of the chemistry rather than a medicinal chemistry-focused PROTAC optimization approach for which scope remains to optimize PK properties in future heterofunctional molecules. For example, the alkyne functionality, present in the A^3 products 2a and 2c, although present in a number of marketed, bioactive molecules,[37] even PROTACs,[38] acting as a rigid hydrophobic spacer, can be reduced by catalytic hydrogenation[39] to afford a saturated, more flexible yet possibly less metabolically labile linker.

[2] = Microsomal stability (HLM); assay type: in vitro ADME; conditions: human, human liver microsomes
From the text: as §4

BRD4 = molecular target: T1, BRD4 (Homo sapiens, UniProt O60885); test: BRD4 degradation assay, Promega Nano-Glo HiBiT lytic assay; assay type: cell-based; conditions: HEK293 CRISPR HiBiT BRD4 cell line
T1 construct: endogenous in cells; host or cells: HEK293 CRISPR HiBiT BRD4 (knock-in)
Method: Data plotted are average ± SD of n = 3 biological replicates.
HEK293 CRISPR HIBIT BRD4 cells were seeded at 5 X 10^5 cells per well in culture medium into
Plates were incubated at 37 °C, 5% CO2 in a humidiﬁed incubator overnight. Compounds (10 mM stock in DMSO) were diluted to a half-log scale and added to the cells. Plates were further incubated at 37 °C for 18 hours.
Following incubation, 100 μL per well Promega Nano -Glo HiBiT lytic detection reagent mix (Promega Nano -Glo HiBiT Lytic Detection System #N3050), prepared according to the manufacturer´s instructions in the kit, were added. The plates were incubated on an orbital shaker for 10 min. Luminescence was measured using plate reader (BMG L abtech PHERA star).

P-gp [3] = molecular target: P-gp (Homo sapiens, UniProt P08183); test: P-gp substrate classification from efflux ratio; assay type: in vitro ADME
From the text: (§5) Figure S3 . PK data for 7a and 7c.
(§6) (2 pictures or pasted objects on this page, not shown here)

P-gp [4] = test: Bidirectional permeability (Papp A-B, B-A); assay type: in vitro ADME; conditions: not told
From the text: as §5, §6

[5] = Bidirectional permeability (Papp A-B, B-A); assay type: in vitro ADME; conditions: for A-B Permeability: class in words; for Papp A→B / Papp B→A: not told; for Papp A→B: A-B direction; for Papp B→A: B-A direction
From the text: as §5, §6

Chain of P-gp (Homo sapiens, UniProt P08183) (P08183 whole entry): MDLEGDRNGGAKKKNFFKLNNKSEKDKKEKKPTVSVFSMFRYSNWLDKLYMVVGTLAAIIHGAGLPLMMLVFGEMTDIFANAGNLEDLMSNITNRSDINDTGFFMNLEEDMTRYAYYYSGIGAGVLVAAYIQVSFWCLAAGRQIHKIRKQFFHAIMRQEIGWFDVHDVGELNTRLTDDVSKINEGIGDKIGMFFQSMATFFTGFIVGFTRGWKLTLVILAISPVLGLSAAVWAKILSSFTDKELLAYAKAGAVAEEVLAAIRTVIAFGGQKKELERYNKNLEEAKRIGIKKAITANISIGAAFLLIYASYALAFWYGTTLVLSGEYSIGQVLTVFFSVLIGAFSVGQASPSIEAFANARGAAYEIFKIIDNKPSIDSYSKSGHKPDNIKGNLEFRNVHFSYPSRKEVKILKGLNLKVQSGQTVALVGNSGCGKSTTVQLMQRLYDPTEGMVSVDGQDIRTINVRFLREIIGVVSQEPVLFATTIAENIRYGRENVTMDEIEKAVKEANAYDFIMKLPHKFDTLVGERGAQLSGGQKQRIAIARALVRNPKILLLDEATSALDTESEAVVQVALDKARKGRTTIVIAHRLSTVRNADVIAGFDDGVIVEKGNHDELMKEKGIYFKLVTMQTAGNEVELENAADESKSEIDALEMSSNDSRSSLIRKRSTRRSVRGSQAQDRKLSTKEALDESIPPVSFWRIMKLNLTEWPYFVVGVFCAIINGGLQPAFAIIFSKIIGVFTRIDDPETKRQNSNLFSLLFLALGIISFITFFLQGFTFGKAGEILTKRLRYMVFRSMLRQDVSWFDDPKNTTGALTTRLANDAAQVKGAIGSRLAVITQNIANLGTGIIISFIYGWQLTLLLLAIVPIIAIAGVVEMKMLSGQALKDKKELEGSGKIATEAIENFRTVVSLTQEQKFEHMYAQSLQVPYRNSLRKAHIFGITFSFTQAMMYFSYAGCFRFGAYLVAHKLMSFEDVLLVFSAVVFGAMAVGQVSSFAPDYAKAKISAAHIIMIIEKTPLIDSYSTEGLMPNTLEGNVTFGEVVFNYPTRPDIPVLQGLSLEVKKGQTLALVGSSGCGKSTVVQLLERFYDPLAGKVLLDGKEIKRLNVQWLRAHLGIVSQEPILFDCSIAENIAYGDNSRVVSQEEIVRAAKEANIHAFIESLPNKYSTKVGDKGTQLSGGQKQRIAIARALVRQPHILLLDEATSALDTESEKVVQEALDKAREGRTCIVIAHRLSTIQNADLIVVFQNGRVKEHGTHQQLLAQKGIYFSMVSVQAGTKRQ
Chain of CRBN-DDB1 (cereblon DNA damage-binding protein 1 complex) (Q96SW2 whole entry): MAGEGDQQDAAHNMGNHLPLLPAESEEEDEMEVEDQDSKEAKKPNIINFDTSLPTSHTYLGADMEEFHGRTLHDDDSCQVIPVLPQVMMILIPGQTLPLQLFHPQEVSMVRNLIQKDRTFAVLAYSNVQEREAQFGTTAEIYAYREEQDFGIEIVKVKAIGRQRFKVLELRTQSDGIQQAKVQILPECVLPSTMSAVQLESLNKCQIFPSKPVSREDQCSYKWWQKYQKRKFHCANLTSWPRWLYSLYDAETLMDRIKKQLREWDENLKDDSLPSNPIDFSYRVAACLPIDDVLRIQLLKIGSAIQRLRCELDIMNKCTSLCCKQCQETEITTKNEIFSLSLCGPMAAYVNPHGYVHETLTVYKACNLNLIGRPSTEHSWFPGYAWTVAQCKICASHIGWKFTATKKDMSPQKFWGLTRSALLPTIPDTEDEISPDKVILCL
Chain of CRBN-DDB1 (cereblon DNA damage-binding protein 1 complex) (Q16531 whole entry partner): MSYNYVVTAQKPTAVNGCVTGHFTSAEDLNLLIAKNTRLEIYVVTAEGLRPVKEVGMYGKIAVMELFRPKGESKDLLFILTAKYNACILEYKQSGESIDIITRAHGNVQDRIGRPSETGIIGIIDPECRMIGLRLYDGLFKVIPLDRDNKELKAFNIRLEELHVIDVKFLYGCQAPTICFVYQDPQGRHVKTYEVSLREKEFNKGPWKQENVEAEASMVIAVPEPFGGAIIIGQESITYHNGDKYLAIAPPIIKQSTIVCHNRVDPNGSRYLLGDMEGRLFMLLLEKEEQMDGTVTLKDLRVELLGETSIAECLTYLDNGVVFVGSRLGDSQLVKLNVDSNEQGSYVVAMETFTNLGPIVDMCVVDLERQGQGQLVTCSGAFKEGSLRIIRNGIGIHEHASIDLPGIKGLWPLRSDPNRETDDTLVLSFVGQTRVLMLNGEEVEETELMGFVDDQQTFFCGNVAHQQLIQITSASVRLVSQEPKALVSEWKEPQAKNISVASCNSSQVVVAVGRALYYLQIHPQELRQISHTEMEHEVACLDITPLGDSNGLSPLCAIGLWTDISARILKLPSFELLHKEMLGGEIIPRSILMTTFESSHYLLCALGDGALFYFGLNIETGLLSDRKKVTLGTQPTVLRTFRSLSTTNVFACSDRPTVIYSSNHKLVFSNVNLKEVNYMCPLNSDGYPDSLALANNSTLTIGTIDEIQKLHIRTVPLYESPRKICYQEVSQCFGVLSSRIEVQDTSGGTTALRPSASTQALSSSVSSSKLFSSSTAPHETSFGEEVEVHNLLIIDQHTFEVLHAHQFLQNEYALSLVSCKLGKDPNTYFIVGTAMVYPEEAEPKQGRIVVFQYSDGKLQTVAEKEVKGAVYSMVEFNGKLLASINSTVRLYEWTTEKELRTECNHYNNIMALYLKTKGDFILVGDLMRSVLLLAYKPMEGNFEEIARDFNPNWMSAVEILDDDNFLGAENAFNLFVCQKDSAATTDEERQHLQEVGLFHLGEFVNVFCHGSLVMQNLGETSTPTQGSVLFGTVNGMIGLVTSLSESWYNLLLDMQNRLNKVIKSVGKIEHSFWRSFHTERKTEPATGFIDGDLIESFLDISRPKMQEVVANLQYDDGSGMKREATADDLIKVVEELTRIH

Q: With `CC1=CC(C)=[N+]2C1=C(CCC(=O)N1CCN(C(C#CCCO)C3CCC(NC(=O)CCOCCOCCNC(=O)c4ccc5c(c4)C(=O)N(C4CCC(=O)NC4=O)C5=O)CC3)CC1)c1c(C)cc(C)n1[B-]2(F)F` (stereo not shown) [Compound 4c] as the compound, how does the Kd [1] read?
A: Its Kd is 166 ± 3.5 nM.

Q: With `Cc1sc2c(c1C)C(c1ccc(Cl)cc1)=N[C@@H](CC(=O)NCCNC(=O)c1ccc(SCCC#CC(C3CCOCC3)N3CCC(NC(=O)COc4cccc5c4C(=O)N(C4CCC(=O)NC4=O)C5=O)CC3)cc1)c1nnc(C)n1-2` (stereo partly shown) [Compound 7a] as the compound, how does the “degradation on addition of proteasome or neddylation inhibitors or thalidomide” value (BRD4 long and short; 10 µM 7a with 10 µM MG132, MLN4924 or thalidomide, 18 h) read?
A: Its value is “reversed”.

Q: And the “concentration range degrading BRD4 long and short” value (BRD4 long and short; HEK293 cell line, 18 h treatment)?
A: Its value is 300 to 1000 nM.

Q: And the solubility (Solubility)?
A: The solubility was “low solubility”.

Q: What about the half-life at 1 h [2] of the same compound?
A: The half-life at 1 h was 6.64 min.

Q: What about the microsomal CLint [2] of the same compound?
A: The microsomal CLint was 209 µL/min/mg.

Q: What about the DC50 (BRD4; 18 h after dosage) of the same compound?
A: The DC50 was 89.4 nM.

Q: What about the “P-gp Substrate” value (P-gp [3]) of the same compound?
A: Its value is “Not-Substrate”.

Q: What about the efflux ratio (P-gp [4]) of the same compound?
A: The efflux ratio was 1.4.

Q: What about the “A-B Permeability” value [5] of the same compound?
A: The value was “low permeability and Low”.

Q: And the Papp A→B [5]?
A: The Papp A→B was 0.007 ×10⁻⁶ cm/s.

Q: And the Papp B→A [5]?
A: Its Papp B→A is 0.01 ×10⁻⁶ cm/s.

Q: Which “solubility (qualitative remark)” value (Solubility) does the source give for `Cc1ncsc1-c1ccc(CNC(=O)[C@@H]2C[C@@H](O)CN2C(=O)[C@@H](NC(=O)CCCCC(=O)NC2CCN(C(C#CCCSc3ccc(C(=O)NCCNC(=O)C[C@@H]4N=C(c5ccc(Cl)cc5)c5c(sc(C)c5C)-n5c(C)nnc54)cc3)C3CCOCC3)CC2)C(C)(C)C)cc1` (stereo partly shown) [Compound 7b] here?
A: Its value is “poor solubility; also recorded: visibly poorly soluble”.

Q: What about the DC50 (BRD4; 18 h) of the same compound?
A: The DC50 was greater than 1000 nM.

Q: Which solubility (Solubility) does the source give for `Cc1sc2c(c1C)C(c1ccc(Cl)cc1)=N[C@@H](CC(=O)NCC#CC(C1CCN(C(=O)COc3cccc4c3C(=O)N(C3CCC(=O)NC3=O)C4=O)CC1)N1CCN(C(=O)COc3cccc4c3C(=O)N(C3CCC(=O)NC3=O)C4=O)CC1)c1nnc(C)n1-2` (stereo partly shown) [Compound 7c] here?
A: Its solubility is “low solubility”.

Q: What about the “solubility (qualitative remark)” value (Solubility) of the same compound?
A: Its value is “poor solubility”.

Q: And the half-life at 1 h [2]?
A: The half-life at 1 h was 17.5 min.

Q: And the microsomal CLint [2]?
A: The microsomal CLint was 79.1 µL/min/mg.

Q: What about the DC50 (BRD4; 18 h) of the same compound?
A: Its DC50 is greater than 1000 nM.

Q: What about the “A-B Permeability” value [5] of the same compound?
A: Its value is “low permeability and Low”.

Q: What about the Papp A→B [5] of the same compound?
A: The Papp A→B was less than 0.1 ×10⁻⁶ cm/s.

Q: And the Papp B→A [5]?
A: The Papp B→A was less than 0.1 ×10⁻⁶ cm/s.
